The record followed here is PubChem BioAssay AID330 (DTP/NCI, 2004).

This assay concerns P388 leukemia ip, CD2F1 mice, survival T/C. The experiment in a line: NCI In Vivo Anticancer Drug Screen. Data for tumor model P388 Leukemia (intraperitoneal) in CD2F1 (CDF1) mice. The settings on record: endpoint: median survival time, higher = longer survival. The gist of the method: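 Mice carrying the transplanted tumor received test compound or vehicle. Survival was recorded in each group, and the value is the treated-group measurement divided by that of the vehicle-treated control group.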

[1] abbreviates: dose: 50.0 mg/kg/injection, schedule: Q01DX005 (ip), vehicle: saline with Tween-80.
The mark [2] stands for this setting: dose: 100.0 mg/kg/injection, schedule: Q01DX005 (ip), vehicle: saline with Tween-80.
Where [3] appears, read: dose: 200.0 mg/kg/injection, schedule: Q01DX005 (ip), vehicle: saline with Tween-80.
The mark [4] stands for this setting: dose: 50.0 mg/kg/injection, schedule: Q01DX009 (ip), vehicle: saline.
The mark [5] stands for this setting: dose: 100.0 mg/kg/injection, schedule: Q01DX009 (ip), vehicle: saline.
The mark [6] stands for this setting: dose: 200.0 mg/kg/injection, schedule: Q01DX009 (ip), vehicle: saline.
[7] abbreviates: dose: 50.0 mg/kg/injection, schedule: Q01DX009 (ip), vehicle: saline with Tween-80.
[8] abbreviates: dose: 12.5 mg/kg/injection, schedule: Q01DX009 (ip), vehicle: Klucel (hydroxypropylcellulose) (HPC).
[9] abbreviates: dose: 25.0 mg/kg/injection, schedule: Q01DX009 (ip), vehicle: Klucel (hydroxypropylcellulose) (HPC).
Setting [10] is: dose: 50.0 mg/kg/injection, schedule: Q01DX009 (ip), vehicle: Klucel (hydroxypropylcellulose) (HPC).
Where [11] appears, read: dose: 100.0 mg/kg/injection, schedule: Q01DX009 (ip), vehicle: Klucel (hydroxypropylcellulose) (HPC).
Setting [12] is: dose: 100.0 mg/kg/injection, schedule: Q01DX009 (ip), vehicle: saline with Tween-80.
Where [13] appears, read: dose: 200.0 mg/kg/injection, schedule: Q01DX009 (ip), vehicle: saline with Tween-80.

“And” between values parts separate entries of the source, which are not always exact repeats. Identical values can stand only once. Inconclusive results and toxic doses are left out.

As for `CN(C)C1C(O)C2Oc3c(cc(O)c4c3C(=O)c3cc5c(c(O)c3C4=O)C(OCCBr)CC(C)(O)C5)C(C)(O2)C1O` (centres undefined), the T/C by setting is: (dose: 2.0 mg/kg/injection, schedule: Q01DX009 (ip), vehicle: other) 150 % of control; (dose: 4.0 mg/kg/injection, schedule: Q01DX009 (ip), vehicle: other) 154 % of control; (dose: 8.0 mg/kg/injection, schedule: Q01DX009 (ip), vehicle: other) 157 % of control; (dose: 16.0 mg/kg/injection, schedule: Q01DX009 (ip), vehicle: other) 159 % of control.

With `NC(CSCc1ccc(N(CCCl)CCCl)cc1)C(=O)O` (centres undefined), the T/C reads like this: (dose: 4.0 mg/kg/injection, schedule: Q01DX009 (ip), vehicle: saline with Tween-80) 172 % of control; (dose: 6.0 mg/kg/injection, schedule: Q01DX009 (ip), vehicle: saline with Tween-80) 218 % of control; (dose: 6.25 mg/kg/injection, schedule: Q01DX009 (ip), vehicle: saline with Tween-80) 245 % of control; (dose: 9.0 mg/kg/injection, schedule: Q01DX009 (ip), vehicle: saline with Tween-80) 159 % of control.

`CC1=C(C)CN(c2ccnc3cc(Cl)ccc23)OC1`: the T/C runs as follows: under setting [1], 102 % of control; under setting [2], 97 % of control; under setting [3], 97 % of control.

As to `CC(C)=NO`, the T/C is, setting by setting: under setting [4], 117 % of control; under setting [5], 100 % of control; under setting [6], 101 % of control.

For the molecule `O=C(O)c1cc(Br)cc(SSc2cc(Br)cc(C(=O)O)c2O)c1O`, under setting [7], the T/C was 96 % of control.

Take `C/C(=C\C=C1\N(C)c2ccccc2C1(C)C)N=C(C#N)C#N`: the T/C is 93 % of control (dose: 50.0 mg/kg/injection, schedule: Q04DX003 (ip), vehicle: saline with Tween-80); 91 % of control (dose: 100.0 mg/kg/injection, schedule: Q04DX003 (ip), vehicle: saline with Tween-80); 96 % of control (dose: 200.0 mg/kg/injection, schedule: Q04DX003 (ip), vehicle: saline with Tween-80).

For `Nc1nc(-c2ccc(Nc3ccnc4cc(Cl)ccc34)cc2)cs1`, the T/C is 96 % of control under setting [1], 88 % of control under setting [2] and 86 % of control under setting [3].

With `CC(C1N(c2ccc(C(=O)NC(CCC(=O)O)C(=O)O)cc2)CC2CNc3nc(N)[nH]c(=O)c3N21)C1N(c2ccc(C(=O)NC(CCC(=O)O)C(=O)O)cc2)CC2CNc3nc(N)[nH]c(=O)c3N21` (centres undefined), the T/C is 94 % of control (dose: 50.0 mg/kg/injection, schedule: Q01DX001 (ip), vehicle: saline); 108 % of control (dose: 100.0 mg/kg/injection, schedule: Q01DX001 (ip), vehicle: saline); 116 % of control (dose: 200.0 mg/kg/injection, schedule: Q01DX001 (ip), vehicle: saline).

As to `CCCCCOC(=O)c1ccccc1N`, the T/C runs as follows: under setting [8], 105 % of control; under setting [9], 104 % of control; under setting [10], 102 % of control and 103 % of control; under setting [11], 91 % of control.

Regarding `N=C(N)SCCSC(=N)N`, the T/C by setting is: (dose: 25.0 mg/kg/injection, schedule: Q01DX009 (ip), vehicle: saline sonified) 90 % of control; (dose: 50.0 mg/kg/injection, schedule: Q01DX009 (ip), vehicle: saline sonified) 109 % of control; (dose: 100.0 mg/kg/injection, schedule: Q04DX002 (ip), vehicle: saline) 100 % of control; (dose: 200.0 mg/kg/injection, schedule: Q04DX002 (ip), vehicle: saline) 100 % of control.

`O=C(O)CCCC(C(=O)O)N1C(=O)c2ccccc2C1=O` (centres undefined): the T/C is, setting by setting: under setting [1], 94 % of control; under setting [2], 93 % of control; under setting [3], 87 % of control.

Regarding `Oc1ccc2ccccc2c1/C=N\Sc1ccc(Cl)cc1`, the T/C is, setting by setting: under setting [7], 90 % of control; under setting [12], 91 % of control; under setting [13], 96 % of control.

On to `CC1=CC(=Nc2ccc(N(CCCl)CCCl)cc2)C=C(C)C1=O`, for which the T/C is 105 % of control (dose: 3.12 mg/kg/injection, schedule: Q01DX009 (ip), vehicle: Klucel (hydroxypropylcellulose) (HPC)); 186 % of control under setting [8]; 153 % of control (dose: 12.5 mg/kg/injection, schedule: Q01DX009 (ip), vehicle: other); 104 % of control and 118 % of control (dose: 12.5 mg/kg/injection, schedule: Q01DX009 (ip), vehicle: saline); 173 % of control and 186 % of control under setting [9]; 235 % of control (dose: 25.0 mg/kg/injection, schedule: Q01DX009 (ip), vehicle: other). For the same molecule, the T/C reads like this: (dose: 25.0 mg/kg/injection, schedule: Q01DX009 (ip), vehicle: saline) 114 % of control; under setting [10], 170 % of control and 186 % of control; (dose: 50.0 mg/kg/injection, schedule: Q01DX009 (ip), vehicle: other) 91 % of control; under setting [4], 157 % of control; under setting [5], 166 % of control.

As for `O=NNc1ccc2cc3ccc(NN=O)cc3nc2c1`, the T/C (dose: 25.0 mg/kg/injection, schedule: Q01DX009 (ip), vehicle: water) was 122 % of control; the T/C (dose: 50.0 mg/kg/injection, schedule: Q01DX009 (ip), vehicle: water) is 106 % of control and 97 % of control.

As to `Cc1nn(-c2ccccc2)c2c1C(c1ccccc1)C(C#N)=C(N)O2` (centres undefined), the T/C is, setting by setting: under setting [10], 100 % of control; under setting [11], 100 % of control; (dose: 200.0 mg/kg/injection, schedule: Q01DX009 (ip), vehicle: Klucel (hydroxypropylcellulose) (HPC)) 100 % of control.

For `N=C(Oc1ccccc1[N+](=O)[O-])c1ccccc1`, the T/C was 90 % of control and 94 % of control under setting [7]; 100 % of control and 95 % of control under setting [12]; 102 % of control and 93 % of control under setting [13]; 88 % of control (dose: 400.0 mg/kg/injection, schedule: Q01DX009 (ip), vehicle: saline with Tween-80).

As to `COc1cccc(OC)c1OCc1ccc(OCc2ccccc2)cc1`, the T/C by setting is: under setting [1], 100 % of control; under setting [2], 95 % of control; under setting [3], 105 % of control.

`CN(NC(=O)CC(=O)NN(C)C(=S)c1ccccc1)C(=S)c1ccccc1`: the T/C was 97 % of control (dose: 12.5 mg/kg/injection, schedule: Q01DX009 (ip), vehicle: gum acacia); 115 % of control (dose: 25.0 mg/kg/injection, schedule: Q01DX009 (ip), vehicle: gum acacia); 104 % of control (dose: 50.0 mg/kg/injection, schedule: Q01DX009 (ip), vehicle: gum acacia).

Turning to `CC1=C(C)C(=O)C(C(C)(C)CC(=O)Sc2ncnc3nc[nH]c23)=C(C)C1=O`, the T/C by setting is: (dose: 100.0 mg/kg/injection, schedule: Q04DX002 (ip), vehicle: saline with Tween-80) 97 % of control; (dose: 200.0 mg/kg/injection, schedule: Q04DX002 (ip), vehicle: saline with Tween-80) 99 % of control.

Consider `CN(CC1CNc2nc(N)[nH]c(=O)c2N1C=O)c1ccc(C(=O)NC(CCC(=O)O)C(=O)O)cc1` (centres undefined), for which the T/C by setting is: (dose: 50.0 mg/kg/injection, schedule: Q01DX009 (ip), vehicle: sodium bicarbonate) 101 % of control; (dose: 100.0 mg/kg/injection, schedule: Q01DX009 (ip), vehicle: sodium bicarbonate) 106 % of control; (dose: 200.0 mg/kg/injection, schedule: Q01DX009 (ip), vehicle: sodium bicarbonate) 108 % of control.

Regarding `CCOC(=O)Nc1nc2c(SC#N)cc(C)cc2s1`, the T/C is, setting by setting: under setting [8], 103 % of control; under setting [9], 96 % of control; under setting [10], 88 % of control and 96 % of control.

In the case of `O=C(CCl)Nc1nc(=O)[nH]s1`, the T/C reads like this: under setting [10], 107 % of control; under setting [11], 107 % of control.

`CNC(=O)OCc1c(COC(=O)NC)c(-c2ccccc2)n(C)c1-c1ccccc1`: the T/C runs as follows: (dose: 10.0 mg/kg/injection, schedule: Q01DX009 (ip), vehicle: distilled water + Tween-80) 164 % of control; (dose: 12.5 mg/kg/injection, schedule: Q01DX009 (ip), vehicle: distilled water + Tween-80) 181 % of control; (dose: 20.0 mg/kg/injection, schedule: Q01DX009 (ip), vehicle: distilled water + Tween-80) 205 % of control; (dose: 40.0 mg/kg/injection, schedule: Q01DX009 (ip), vehicle: distilled water + Tween-80) 124 % of control.

With `[O-][n+]1ccc(C2CO2)cc1` (centres undefined), the T/C runs as follows: under setting [4], 93 % of control; under setting [5], 101 % of control; under setting [6], 98 % of control.

In the case of `CC12COC3(C)CCC(C)(OC1)N23` (centres undefined), the T/C is 100 % of control under setting [7], 97 % of control under setting [12] and 103 % of control under setting [13].
